Experimental data published in article PMC11674305, “Inhibition of Neural Crest Cell Migration by Strobilurin Fungicides and Other Mitochondrial Toxicants” (Cells, 2024).

Columns and labels:
complex III (cIII) = molecular target: T1, complex III (cIII) (Homo sapiens, UniProt P00156); assay: Electron transport chain complex activity in permeabilized NCC (Seahorse); format: cell-based; conditions: 60 μM (BMC10(V) of cMINC)
T1 construct: endogenous in cells; host or cells: neural crest cells (NCC), digitonin-permeabilized
Text: Magel et al. (2024): Inhibition of neural crest cells migration by strobilurin fungicides
Figure S9. Inhibition of electron transport chain complexes by picoxystrobin in neural crest […]
NCC were exposed to the BMC10(V) of the cMINC assay (60 μ M). The grey area indicates th e non-significant range of the assay (≤ 25% change). The effect on complex IV (cIV) was non-significant (green bar). The purple bar indicates complex III (cIII) inhibition. Yellow bars […]
that for these assays, the electrons have to pass cIII to reach cIV (oxygen consumption), i.e. electrons from cI (or cII) cannot be used for the reduction of oxygen, as they need to flow through cIII (which is blocked). The pattern of inhibition is indicative of cIII as illustrated earlier (Delp et al., 2019; van der Stel et al., 2020).
To investigate the inhibition pattern of picoxystrobin, NCC were permeabilized and complex-specific substrates and inhibitors were sequentially injected as described earlier (Delp et al., 2019). In detail, cells were permeabilized with MAS buffer (220 mM mannitol, 1 mM ADP, 70 mM sucrose, 10 mM KH2PO4, 5 mM MgCl2, 2 mM HEPES, 1 mM EGTA, 4 mg/ml fatty acid-free BSA, pH = 7.2) supplemented with 25 μ g/mL digitonin. Seahorse measurements were started directly afterwards, and basal OCRs were assessed for internal normalization. Then picoxystrobin was injected and cI activity was assessed. […]

[1] = parameters: species or system human
Procedure: Figure 8 Consideration of biokinetics for refined hazard (potency) estimates. (A) Concentration–response curve of the oxygen consumption rate (OCR) in NCCs cultured in galactose medium after a 24 h treatment with picoxystrobin. The highest tested concentration was 2.8 µM (highest non-cytotoxic exposure). Data are shown for two independent experiments (as in Figure 7B). (B) The cMINC assay was performed as in Figure 1, but the NCCs were cultured in galactose medium. The insert box gives picoxystrobin potency data for migration (M) and cytotoxicity (V), and their ratio. Data are expressed as means ± SEM from seven independent experiments. (C) Schematic illustration of the distribution of picoxystrobin in a cell culture well according to the in silico biokinetics prediction model. Data for each compartment are given either as percentage (left) or as concentrations (right) for a nominal concentration of 1 µM. (D) Tabular overview of the distribution of picoxystrobin in the different compartments at a nominal concentration of 1 µM. Mediumt: total medium; Mediumb: bound in medium; Mediumu: unbound in medium; Cellst: total amount in cells; CellsM: mitochondrial compartment; CellsL: lysosomal compartment; CellsR: “rest” of the cells. […] (E) Synoptic overview of predicted and measured concentrations of picoxystrobin. […]

[2] = cited from earlier work

Structure (SMILES): CO/C=C(/C(=O)OC)c1ccccc1COc1cccc(C(F)(F)F)n1 [Picoxystrobin, picoxystrobin]
- effect on complex III (cIII) (complex III (cIII)): inhibition of complex III
- MoE for fetus (nominal data) [1]: 2-100 fold
- blood to plasma ratio [2]: 0.71
- fraction unbound in blood plasma [2]: 0.0127
